Reference: patent US5486526A, “Histamine H3 -receptor antagonists and therapeutic uses thereof” (The University of Toledo, priority 1993, dated 1996)
Where two headings read alike, the source gives them in different places.

How the values were obtained:
histamine H3 receptor = target: T1, histamine H3 receptor (Rattus norvegicus, UniProt Q9QYN8); experiment: Inhibition of [^3 H]-N-alpha-methylhistamine binding to rat brain membranes
T1 construct: from tissue
Procedure: A series of compounds were prepared and tested for their histamine H3 receptor antagonist activity. The antagonist activity of the compounds was detected by observing inhibition of (^3 H)-N-(alpha)methylhistamine activity on rat brain membranes.
The various compounds were tested for the ability to bind to the histamine H3 receptor. A binding assay in a rat brain membrane preparation, based on inhibition of binding of [^3 H]-N-alpha-methylhistamine using excess unlabeled alpha-methylhistamine to account for nonspecific binding, was developed.

[1] = test system: H3 receptors in the cortex; experiment: Blood-brain barrier penetration by ex vivo binding of [^3 H]-N^α -methylhistamine in rat cortex
Procedure: Blood-brain barrier penetration in rats was assessed by an ex vivo binding procedure. Young adult male Long-Evans rats were injected i.p. with saline or H3 antagonists in saline. At various times after injection animals were sacrificed, the cortex was removed, homogenized in 50 mM Na/K-phosphate buffer, pH 7.4, and the binding of 1 nM [^3 H]-N^α -methylhistamine was measured using 400 μg protein of the homogenate. Nonspecific binding was accounted for by the inclusion of excess thioperamide in some samples. Under these conditions, the binding was approximately 90% specific.

Male albino CF-1 mice = experiment: Behavioral effects in mice: sleep induced by (R)α-methylhistamine; format: in vivo, mouse
Procedure: (§1) The overall strategy to show central nervous system antagonist activity was to challenge effects of the agonist (R)α-methylhistamine. Therefore, the first objective was to establish a dose response curve for behavioral effects of (R)α-methylhistamine. Male albino CF-1 mice weighing 20-30 g were used. Saline or (R)α-methylhistamine in saline was injected i.p. in a volume ≤0.4 ml. […] Animals were scored for the presence (1) or absence (0) of the behavior and the results were reported as the accumulated score for a 30 minute period (maximum score=9).
(§2) To assess the effects of antagonists, they were administered with the (R)α-methylhistamine in saline.

histamine H3 receptors = details: in vitro; cited from earlier work
brain in rats = details: cited from earlier work
Adenosine = experiment: NOVASCREEN receptor selectivity assay: Adenosine; format: binding; details: 10^-5 M
Quisqualate = experiment: NOVASCREEN receptor selectivity assay: Quisqualate; format: binding; details: 10^-5 M
Kainate = experiment: NOVASCREEN receptor selectivity assay: Kainate; format: binding; details: 10^-5 M
MK-801 = experiment: NOVASCREEN receptor selectivity assay: MK-801; format: binding; details: 10^-5 M
NMDA = experiment: NOVASCREEN receptor selectivity assay: NMDA; format: binding; details: 10^-5 M
PCP = experiment: NOVASCREEN receptor selectivity assay: PCP; format: binding; details: 10^-5 M
Glycine [2] = experiment: NOVASCREEN receptor selectivity assay: Glycine (excitatory); format: binding; details: 10^-5 M
Glycine [3] = experiment: NOVASCREEN receptor selectivity assay: Glycine (inhibitory); format: binding; details: 10^-5 M
GABAA = experiment: NOVASCREEN receptor selectivity assay: GABAA; format: binding; details: 10^-5 M
GABAB = experiment: NOVASCREEN receptor selectivity assay: GABAB; format: binding; details: 10^-5 M
Benzodiazephine = experiment: NOVASCREEN receptor selectivity assay: Benzodiazephine; format: binding; details: 10^-5 M
Dopamine 1 = experiment: NOVASCREEN receptor selectivity assay: Dopamine 1; format: binding; details: 10^-5 M
Dopamine 2 = experiment: NOVASCREEN receptor selectivity assay: Dopamine 2; format: binding; details: 10^-5 M
Serotonin 1 = experiment: NOVASCREEN receptor selectivity assay: Serotonin 1; format: binding; details: 10^-5 M
Serotonin 2 = experiment: NOVASCREEN receptor selectivity assay: Serotonin 2; format: binding; details: 10^-5 M
Angiotensin = experiment: NOVASCREEN receptor selectivity assay: Angiotensin; format: binding; details: 10^-5 M
Arg-Vasopressin V1 = experiment: NOVASCREEN receptor selectivity assay: Arg-Vasopressin V1; format: binding; details: 10^-5 M
Bombesin = experiment: NOVASCREEN receptor selectivity assay: Bombesin; format: binding; details: 10^-5 M
CCK Central = experiment: NOVASCREEN receptor selectivity assay: CCK Central; format: binding; details: 10^-5 M
CCK Peripheral = experiment: NOVASCREEN receptor selectivity assay: CCK Peripheral; format: binding; details: 10^-5 M
Substance K = experiment: NOVASCREEN receptor selectivity assay: Substance K; format: binding; details: 10^-5 M
Substance P = experiment: NOVASCREEN receptor selectivity assay: Substance P; format: binding; details: 10^-5 M
NPY = experiment: NOVASCREEN receptor selectivity assay: NPY; format: binding; details: 10^-5 M
Neurotensin = experiment: NOVASCREEN receptor selectivity assay: Neurotensin; format: binding; details: 10^-5 M
Somatostatin = experiment: NOVASCREEN receptor selectivity assay: Somatostatin; format: binding; details: 10^-5 M
VIP = experiment: NOVASCREEN receptor selectivity assay: VIP; format: binding; details: 10^-5 M
Calcium [4] = format: binding; details: 10^-5 M
Calcium [5] = experiment: NOVASCREEN receptor selectivity assay: Calcium (Nifedipine); format: binding; details: 10^-5 M
Chloride = experiment: NOVASCREEN receptor selectivity assay: Chloride; format: binding; details: 10^-5 M
Potassium = experiment: NOVASCREEN receptor selectivity assay: Potassium; format: binding; details: 10^-5 M
ANF (rat) = experiment: NOVASCREEN receptor selectivity assay: ANF (rat); format: binding; details: 10^-5 M
EGF = experiment: NOVASCREEN receptor selectivity assay: EGF; format: binding; details: 10^-5 M
NGF = experiment: NOVASCREEN receptor selectivity assay: NGF; format: binding; details: 10^-5 M
[6] = test system: Adenylate Cyclase Forskolin; experiment: NOVASCREEN receptor selectivity assay: Adenylate Cyclase, Forskolin; format: binding; details: 10^-5 M
[7] = test system: Protein Kinase C Phorbol Ester; experiment: NOVASCREEN receptor selectivity assay: Protein Kinase C, Phorbol Ester; format: binding; details: 10^-5 M
Inositol Triphosphate = experiment: NOVASCREEN receptor selectivity assay: Inositol Triphosphate; format: binding; details: 10^-5 M
[8] = test system: adenosine, excitory or inhibitory amino acid, dopamine, serotonin, or a broad range of petidergic receptors, or to ion channel proteins, peptide factor or …; experiment: NOVASCREEN receptor selectivity study (whole panel); format: binding; details: 10^-5 M
Male Sprague-Dawley rats = experiment: Food intake in 24-hour-fasted rats; format: in vivo, rat
Procedure: Male Sprague-Dawley rats (200-300 grams) were used in all experiments. Rats were fasted for 24 hours prior to all experiments. Water was provided ad lib. Rats were singly placed in a ventilated plastic circular rat metabolism chamber with a stainless steel wire mess grid flood equipped with food and H2 O attachments. A measured quantity of food (50 grams) and water (100 mls) was supplied through attachments to the metabolism chambers. Food and water intake was measured at the 2, 4 and 6 hour time periods.
Final volumes were 1.0 ml/kg. Subsequently, they were left undisturbed for the experimental period except when the food and H2 O attachments were briefly removed for measurement of food and water intake. At the completion of the experiment, animals were returned to their home cages. The results are found in Table III and FIGS. 7 and 8.

[9] = Toxicity observed in testing to date; format: in vivo; details: all testing to date, even at high doses
H3 -receptor = experiment: In vivo assays of H3-receptor antagonist effect (overall)
Procedure: as §1, §2

T1 sequence (Q9QYN8 whole entry): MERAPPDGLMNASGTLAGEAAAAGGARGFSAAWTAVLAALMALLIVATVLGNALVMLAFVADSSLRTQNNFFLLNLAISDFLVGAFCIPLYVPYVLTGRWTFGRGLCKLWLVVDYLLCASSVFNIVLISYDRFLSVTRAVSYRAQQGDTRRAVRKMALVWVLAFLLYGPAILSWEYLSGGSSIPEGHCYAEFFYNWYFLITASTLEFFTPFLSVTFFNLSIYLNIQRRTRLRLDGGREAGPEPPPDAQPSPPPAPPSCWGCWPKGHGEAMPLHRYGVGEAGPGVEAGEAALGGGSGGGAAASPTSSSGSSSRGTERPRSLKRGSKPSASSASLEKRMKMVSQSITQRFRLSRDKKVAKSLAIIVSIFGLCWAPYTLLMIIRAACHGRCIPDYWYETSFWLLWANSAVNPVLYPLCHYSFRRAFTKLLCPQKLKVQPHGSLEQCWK

Structure (SMILES): S=C(NC1CCCCC1)N1CCC(c2cnc[nH]2)CC1 [Thioperamide, reference compound]
- IC50 (histamine H3 receptor): 4 ± 0.6 nM
- IC50 (histamine H3 receptor; read-out: affinity, repeated in text): 4 nM
- binding of [^3 H]-N^α -methylhistamine to cortex (in words) ([1]; 2, 5, and 10 mg/kg i.p., 15 min after injection): decreased the binding of [^3 H]-N^α -methylhistamine
- penetration of the blood-brain barrier (in words) ([1]; thioperamide 2, 5, 10 mg/kg i.p., 15 min): able to penetrate the blood-brain barrier
- soporific effect of (R)α-methylhistamine (in words) (Male albino CF-1 mice; 30 mg/kg of (R)α-methylhistamine): able to inhibit the soporific effect
- behavior with antagonist alone (in words) (Male albino CF-1 mice; in the absence of the α-methylhistamine H3 receptor agonist): animals were very active, exhibiting normal behaviors
- Ki (histamine H3 receptors): 4.3 nM
- dose required in vivo to inhibit histamine release from the brain (in words) (brain in rats): relatively high doses are required in vivo

Structure (SMILES): O=C(CCCCC1CCCCC1)N1CCC(c2c[nH]cn2)CC1 [Compound 1, 4-(1-cyclohexylvaleroyl-4-piperidyl)-1H-imidazole]
- Initial Percent Inhibition (Average; N = 2) (Adenosine): -3.0%
- Initial Percent Inhibition (Average; N = 2) (Quisqualate): -1.8%
- Initial Percent Inhibition (Average; N = 2) (Kainate): 42.1%
- Initial Percent Inhibition (Average; N = 2) (MK-801): -8.6%
- Initial Percent Inhibition (Average; N = 2) (NMDA): -4.5%
- Initial Percent Inhibition (Average; N = 2) (PCP): 9.7%
- Initial Percent Inhibition (Average; N = 2) (Glycine [2]): 1.8%
- Initial Percent Inhibition (Average; N = 2) (Glycine [3]): 17.4%
- Initial Percent Inhibition (Average; N = 2) (GABAA): 0.6%
- Initial Percent Inhibition (Average; N = 2) (GABAB): 0.0%
- Initial Percent Inhibition (Average; N = 2) (Benzodiazephine): 2.7%
- Initial Percent Inhibition (Average; N = 2) (Dopamine 1): 6.4%
- Initial Percent Inhibition (Average; N = 2) (Dopamine 2): 3.5%
- Initial Percent Inhibition (Average; N = 2) (Serotonin 1): -3.6%
- Initial Percent Inhibition (Average; N = 2) (Serotonin 2): 10.5%
- Initial Percent Inhibition (Average; N = 2) (Angiotensin): 6.5%
- Initial Percent Inhibition (Average; N = 2) (Arg-Vasopressin V1): 10.1%
- Initial Percent Inhibition (Average; N = 2) (Bombesin): -5.5%
- Initial Percent Inhibition (Average; N = 2) (CCK Central): 18.6%
- Initial Percent Inhibition (Average; N = 2) (CCK Peripheral): 6.9%
- Initial Percent Inhibition (Average; N = 2) (Substance K): 29.2%
- Initial Percent Inhibition (Average; N = 2) (Substance P): 20.0%
- Initial Percent Inhibition (Average; N = 2) (NPY): -8.7%
- Initial Percent Inhibition (Average; N = 2) (Neurotensin): -10.5%
- Initial Percent Inhibition (Average; N = 2) (Somatostatin): 4.1%
- Initial Percent Inhibition (Average; N = 2) (VIP): 17.1%
- Initial Percent Inhibition (Average; N = 2) (Calcium [4]): 1.9%
- Initial Percent Inhibition (Average; N = 2) (Calcium [5]): 8.1%
- Initial Percent Inhibition (Average; N = 2) (Chloride): -3.4%
- Initial Percent Inhibition (Average; N = 2) (Potassium): 7.7%
- Initial Percent Inhibition (Average; N = 2) (ANF (rat)): 0.1%
- Initial Percent Inhibition (Average; N = 2) (EGF): 18.1%
- Initial Percent Inhibition (Average; N = 2) (NGF): 17.1%
- Initial Percent Inhibition (Average; N = 2) [6]: 2.1%
- Initial Percent Inhibition (Average; N = 2) [7]: 0.9%
- Initial Percent Inhibition (Average; N = 2) (Inositol Triphosphate): 9.2%
- binding to panel receptors (in words) [8]: no significant binding
- penetration of the blood-brain barrier (in words) ([1]; 50 and 70 mg/kg, one hour after injection): penetrates the blood-brain barrier one hour after injections
- penetration of the blood-brain barrier compared with thioperamide (in words) ([1]; taking into account the difference in affinity): penetrates the blood-brain barrier at least as well as thioperamide
- soporific effect of (R)α-methylhistamine (in words) (Male albino CF-1 mice; 25 mg/kg (R)α-methylhistamine): inhibited the soporific effect
- food intake 2 HR (Male Sprague-Dawley rats; 3 mg/kg i.p.): 5.687
- food intake 4 HR (Male Sprague-Dawley rats; 3 mg/kg i.p.): 7.333
- food intake 2 HR (Male Sprague-Dawley rats; 10 mg/kg i.p.): 2.000
- food intake 4 HR (Male Sprague-Dawley rats; 10 mg/kg i.p.): 5.167
- food intake 2 HR (Male Sprague-Dawley rats; 30 mg/kg i.p.): 1.167
- food intake 4 HR (Male Sprague-Dawley rats; 30 mg/kg i.p.): 2.333
- food intake 6 HR (Male Sprague-Dawley rats; 30 mg/kg i.p.): 5.000
- toxicity (in words) [9]: no toxicity
- H3 -receptor antagonist effect (in words) (H3 -receptor): effective as an H3 -receptor antagonist
